This is an account of results in US20260217652A1, “PHENYL-SUBSTITUTED HETEROARYL COMPOUND AND PHARMACEUTICAL COMPOSITION COMPRISING SAME, PREPARATION METHOD THEREFOR AND USE THEREOF” (SHANGHAI MEIYUE BIOTECH DEVELOPMENT CO., LTD., priority 2023, published 2026).

Data set [1] in a line: In vitro liver microsome stability, human. The format is in vitro ADME. The settings on record: liver microsomes, 0.5 mg/mL microsomes, 1 μM compound, NADPH, 37° C., read-out: Human liver microsomes Half-life T1/2. The method, boiled down: (§1)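 Rat, mouse or human liver microsomes (0.5 mg/mL) in 50 mM K2HPO4 buffer with 1 μM compound, preincubated 5 min at 37° C., reaction started with NADPH. Sampled at 0, 10, 30, 60 and 90 min, quenched in acetonitrile, remaining compound by LC-MS/MS; T1/2 calculated. No-NADPH controls included.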
Background: Liver microsomes are vesicles of endoplasmic reticulum, rich in cytochrome P450 enzymes.

Data set [2] is described as follows: In vitro liver microsome stability, rat. The format is in vitro ADME. The following applies: liver microsomes, 0.5 mg/mL microsomes, 1 μM compound, NADPH, 37° C., read-out: Rat liver microsomes Half-life T1/2. The method, boiled down: as §1
Data set [3] has as its system TNF-α in human PBMC cells. The data set can be described thus: In vitro TNF-α activity assay in human PBMC cell supernatant (LPS, ELISA). The format is cell-based. The following applies: Homo sapiens, PBMC, 24 h, LPS 100 ng/mL, read-out: p38 MAPK/TNF-α IC50. The method, boiled down: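 Fresh human PBMCs (2×10^5/well) were pretreated 1 h with compound in a 6-point, 5-fold dilution series (0.4% DMSO final). They were then stimulated with 100 ng/mL LPS for 24 h at 37 °C. Supernatant TNF-α was measured by ELISA and IC50 was derived from concentration-response fitting.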
A general note: An ELISA detects its analyte on a solid surface through an enzyme-linked reagent.

A short description of data set [4]: Pharmacokinetic evaluation in mice. The format is in vivo. The settings on record: mouse, plasma; for AUC(0-t): read-out: Area under curve AUC0-24 h; for half-life: read-out: Half-life T1/2 (converted). As to the method:
The compound was weighed and dissolved in a mixed solvent of DMAC: Solutol: PBS (1:1:8. After intravenous/gastric administration to mice, whole blood ([…]) was collected at 0.083, 0.25, 0.5, 1, 2, 4, 7, and 24 hours. The samples were anticoagulated with EDTA-K2, immediately centrifuged at 4000 rpm for 5 minutes at 4° C., and the supernatant was frozen in a −80° C. refrigerator. Plasma sample processing: The samples were precipitated with an internal standard-containing CH3CN precipitant, followed by centrifugation at 12700 rpm for 10 min. The supernatant was collected and analyzed by LC-MS/MS (AB Triple Quard 5500) to obtain the plasma drug concentration. The parameters were calculated using a non-compartmental model in Winnolin version 8.1.

A short description of data set [5]: In vitro liver microsome stability, mouse. The format is in vitro ADME. The settings on record: liver microsomes, 0.5 mg/mL microsomes, 1 μM compound, NADPH, 37° C., read-out: Mouse liver microsomes Half-life T1/2. The method, boiled down:
as §1

The target in data set [6] is T1, p38 MAPK/MK2 (Homo sapiens, UniProt Q16539).
T1 construct: purchased Carna (p38α); Abcam (MK2) 04-152; 79910
Kind of data set: In vitro activity assay of p38 MAPK/MK2 (Z-LYTE kinase assay kit). The following applies: active p38α, inactive MK2, Ser/Thr 4; 1-hour reaction at 20° C. The format is biochemical. The method, boiled down: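 FRET-based Z-LYTE assay; compound tested from […] top concentration, 5-fold serial dilution, 8 points, duplicate wells, 1% DMSO. Kinase reaction 1 h at 20° C, then development reagent 1 h at room temperature; fluorescence read at Ex 400/Em 445 and 520 nm. IC50 from concentration-effect curve fit.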

Setting [7] is: intravenous injection group 1 mg/kg.
[8] abbreviates: po, intragastric administration group 5 mg/kg.

Structures are written as SMILES. Read-outs that look alike come from different tables or passages of the source.

T1 sequence (Q16539 whole entry): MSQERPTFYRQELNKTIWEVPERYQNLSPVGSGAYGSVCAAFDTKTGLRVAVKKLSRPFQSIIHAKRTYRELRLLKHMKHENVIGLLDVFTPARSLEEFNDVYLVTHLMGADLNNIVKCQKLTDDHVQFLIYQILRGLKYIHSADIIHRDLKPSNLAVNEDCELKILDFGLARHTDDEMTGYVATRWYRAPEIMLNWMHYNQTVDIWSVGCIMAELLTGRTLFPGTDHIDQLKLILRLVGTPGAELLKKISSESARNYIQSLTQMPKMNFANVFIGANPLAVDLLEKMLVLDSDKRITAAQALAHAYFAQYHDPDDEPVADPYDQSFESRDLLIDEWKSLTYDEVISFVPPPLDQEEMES
T1 sequence (P49137 whole entry partner): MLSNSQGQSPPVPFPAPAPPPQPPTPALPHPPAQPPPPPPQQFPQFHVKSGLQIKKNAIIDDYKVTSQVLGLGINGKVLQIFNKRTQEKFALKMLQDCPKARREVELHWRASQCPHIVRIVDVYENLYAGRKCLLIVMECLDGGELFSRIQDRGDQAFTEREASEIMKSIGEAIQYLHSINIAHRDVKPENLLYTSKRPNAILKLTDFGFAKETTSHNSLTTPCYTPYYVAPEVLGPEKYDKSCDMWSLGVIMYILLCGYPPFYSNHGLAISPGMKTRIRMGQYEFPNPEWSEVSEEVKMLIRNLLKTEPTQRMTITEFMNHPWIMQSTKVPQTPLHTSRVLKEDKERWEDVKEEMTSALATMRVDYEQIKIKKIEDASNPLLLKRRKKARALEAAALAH

As to `CNC(=O)c1cccc(-c2ncc(C)c(-n3c(C)cc(OCc4ncc(F)cc4F)c(Cl)c3=O)c2F)c1` [Compound 31-P1], the half-life at 1 μM is greater than 4.66 h in data set [1], 2.76 h in data set [2] and 1.79 h in data set [5]. In addition, the IC50 in data set [3] amounted to 3.79 nM; in data set [6], 2.79 nM. Also, the values for the AUC(0-t) in data set [4] (setting [7]) and in data set [4] (setting [8]) were 1360 ng·h/mL and 2070 ng·h/mL, respectively. Besides, the clearance in data set [4] (intravenous injection group 1 mg/kg, read-out: Clearance CL (converted)) was 12.3 mL/min/kg. In addition, the half-life is 0.57 h in data set [4] (setting [7]) and 3.24 h in data set [4] (setting [8]). Besides, the C0 in data set [4] (intravenous injection group 1 mg/kg, read-out: Initial concentration C0) came out at 2150 ng/mL. Also, in data set [4] (intravenous injection group 1 mg/kg, read-out: Volume of distribution Vd), the distribution volume (Vd) came to 0.47 L/kg. In data set [4] (po, intragastric administration group 5 mg/kg, read-out: Bioavailability F %), the bioavailability is 30.5%. The Cmax in data set [4] (po, intragastric administration group 5 mg/kg, read-out: Maximum concentration Cmax) worked out at 979 ng/mL.

A word on the clearance: it is a measure of how efficiently the substance is removed, as volume per time. As a reminder, the Vd is the apparent volume that relates the amount in the body to the concentration in plasma or blood. In general, bioavailability refers to dose-corrected exposure relative to a reference, in per cent.
